Source: ChEMBL document CHEMBL5346948, “Expanding Chemical Probe Space: Quality Criteria for Covalent and Degrader Probes” (J Med Chem, 2023)

Key:
[1] = system: GTPase KRas (Homo sapiens), P01116 [G12C]; test: Binding affinity to Hexahistidine-tagged recombinant human KRAS G12C mutant (1 to 169 residues) expressed in Escherichia coli assessed as kinact/Ki ratio
[2] = molecular target: T1, Protein cereblon/RAC-alpha serine/threonine-protein kinase (Homo sapiens, UniProt P31749+Q96SW2); test: Protac activity at CRBN/Akt1 in human JeKo-1 cells assessed as Akt1 degradation by immunoblot analysis; assay type: cell-based
[3] = molecular target: T1, Protein cereblon/RAC-alpha serine/threonine-protein kinase; test: Protac activity at CRBN/Akt1 in human JeKo-1 cells assessed as induction of Akt1 degradation by measuring maximal protein degradation relative to control; assay type: cell-based
[4] = molecular target: Tyrosine-protein kinase JAK1 (Homo sapiens, UniProt P23458); test: Inhibition of JAK1 (unknown origin)
[5] = molecular target: T2, Estrogen receptor (Homo sapiens) (UniProt P03372); test: Induction of ERalpha degradation in human MCF7 cells assessed as maximal degradation relative to control; assay type: cell-based
T2 sequence (whole entry): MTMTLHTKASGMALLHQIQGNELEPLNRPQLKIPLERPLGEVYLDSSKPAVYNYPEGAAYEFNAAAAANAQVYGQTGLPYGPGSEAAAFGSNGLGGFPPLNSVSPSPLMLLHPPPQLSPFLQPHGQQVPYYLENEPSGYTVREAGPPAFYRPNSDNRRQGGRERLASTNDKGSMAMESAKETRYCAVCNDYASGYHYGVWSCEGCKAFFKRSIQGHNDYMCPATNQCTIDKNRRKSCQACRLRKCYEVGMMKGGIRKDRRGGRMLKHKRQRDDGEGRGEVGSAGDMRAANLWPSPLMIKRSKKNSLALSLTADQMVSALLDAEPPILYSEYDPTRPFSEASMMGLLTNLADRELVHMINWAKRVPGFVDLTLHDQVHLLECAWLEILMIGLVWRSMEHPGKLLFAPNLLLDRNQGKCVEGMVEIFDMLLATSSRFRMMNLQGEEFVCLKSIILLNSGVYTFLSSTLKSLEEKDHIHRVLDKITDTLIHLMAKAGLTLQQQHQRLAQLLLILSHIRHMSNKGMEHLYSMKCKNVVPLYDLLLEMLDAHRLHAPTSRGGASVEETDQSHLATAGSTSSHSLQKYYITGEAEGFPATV

[6] = system: GTPase KRas (Homo sapiens), P01116 [G12C]; test: Binding affinity to KRAS G12 mutant (unknown origin) assessed as kinact/Ki ratio
[7] = molecular target: T3, B-cell lymphoma 6 protein (Homo sapiens, UniProt P41182); test: Induction of BCL6 degradation in human SU-DHL-4 cells; assay type: cell-based
[8] = molecular target: T3, B-cell lymphoma 6 protein; test: Induction of BCL6 degradation in human SU-DHL-4 cells assessed as maximal degradation relative to control; assay type: cell-based
[9] = molecular target: T4, von Hippel-Lindau disease tumor suppressor/Bcl-2-like protein 1 (Homo sapiens, UniProt Q07817+P40337); test: Protac activity at VHL/BCL-XL in human MOLT-4 cells assessed as induction of BCL-XL degradation incubated for 16 hrs by immunoblot analysis; assay type: cell-based
[10] = molecular target: T4, von Hippel-Lindau disease tumor suppressor/Bcl-2-like protein 1; test: Protac activity at VHL/BCL-XL in human MOLT-4 cells assessed as induction of protein degradation by measuring maximal degradation relative to control; assay type: cell-based
[11] = molecular target: Cereblon/Bromodomain-containing protein 9 (Homo sapiens); test: PROTAC activity at CRBN/BRD9 in human HeLa cells assessed as protein degradation by Western blot analysis
[12] = system: Cereblon/Bromodomain-containing protein 9 (Homo sapiens); test: PROTAC activity at CRBN/BRD9 in human HeLa cells assessed as induction of protein degradation by measuring maximal degradation relative to control
[13] = molecular target: T5, Zinc finger protein Helios (Homo sapiens, UniProt Q9UKS7); test: Induction of IKZF2 degradation in human GripTite 293 MSR cells assessed as maximal degradation relative to control; assay type: cell-based
[14] = molecular target: T5, Zinc finger protein Helios; test: Induction of IKZF2 degradation in human GripTite 293 MSR cells; assay type: cell-based
[15] = molecular target: von Hippel-Lindau disease tumor suppressor/SWI/SNF-related matrix-associated actin-dependent regulator of chromatin subfamily A member 2 (Homo sapiens) (UniProt P51531+P40337); test: PROTAC activity at SMARCA2/VHL in human MV4-11 cells assessed as induction of protein degradation by measuring maximal protein degradation relative to control; assay type: cell-based

C=CC(=O)N1CC(N2CCN(C(=O)CNc3cc(C4(C)CC4)c(Cl)cc3O)CC2)C1
Ratio [1]: 250 s⁻¹ M⁻¹

C=CS(=O)(=O)NC1CCN(C(=O)CNc2cc(I)c(Cl)cc2O)CC1
Ratio [1]: 0.33 s⁻¹ M⁻¹

C=CC(=O)N1CCN(c2ncnc3c(F)c(-c4c(O)cccc4F)c(Cl)cc23)CC1
Ratio [1]: 1100 s⁻¹ M⁻¹

Cc1ncsc1-c1ccc([C@H](C)NC(=O)[C@@H]2C[C@@H](O)CN2C(=O)[C@@H](NC(=O)CCCCCCCCCCNC(=O)CCc2cccc(-c3ccc4nc(-c5cccnc5N)n(-c5ccc(C6(N)CCC6)cc5)c4n3)c2)C(C)(C)C)cc1
DC50 [2]: 23 nM
Emax [3]: > 80%

CS(=O)(=O)N1CC[C@H](C#CC(=O)N2CCC[C@@H](c3ccc(Cl)c(Cl)c3)C2)C1
IC50 [4]: 32 nM

O=C1CC[C@H](N2Cc3cc(N4CCN(CC5CCN(c6ccc([C@@H]7c8ccc(O)cc8CC[C@@H]7c7ccccc7)cc6)CC5)CC4)ccc3C2=O)C(=O)N1
Emax [5]: 80%

C=CC(=O)N1CCN(c2nc(OC[C@@H]3CCCN3C)nc3c(F)c(-c4nc(N)cc(C)c4C(F)(F)F)c(Cl)cc23)[C@@H](C)C1
Ratio [6]: 27000 s⁻¹ M⁻¹

CNC(=O)COc1cc2cc(Nc3nc(N4C[C@H](C)C[C@H](C)C4)ncc3Cl)ccc2n(C)c1=O
DC50 [7]: 20 nM
Emax [8]: > 80%

Cc1ncsc1-c1ccc([C@H](C)NC(=O)[C@@H]2C[C@@H](O)CN2C(=O)[C@@H](NC(=O)CCCCCC(=O)N2CCN(CC[C@H](CSc3ccccc3)Nc3ccc(S(=O)(=O)NC(=O)c4ccc(N5CCN(CC6=C(c7ccc(Cl)cc7)CCC(C)(C)C6)CC5)cc4)cc3S(=O)(=O)C(F)(F)F)CC2)C(C)(C)C)cc1 [DT-2216]
DC50 [9]: 63 nM
Emax [10]: 91%

COc1cc(-c2cn(C)c(=O)c(C)c2C)cc(OC)c1CN1CC[C@H](N2CCN(c3ccc(N[C@H]4CCC(=O)NC4=O)cc3F)CC2)C(F)(F)C1 [SENDEGOBRESIB]
DC50 [11]: 3 nM
Emax [12]: 96%

O=C1CCC(N2Cc3cc(C4CCN(Cc5ccccc5)CC4)ccc3C2=O)C(=O)N1 (centres undefined)
Emax [13]: 69%
DC50 [14]: 11 nM

COc1cc(-c2cn(C)c(=O)c3cnc(N4CCC4)cc23)cc(OC)c1CN1CCC(CN2CCC3(CC2)CN(c2ccc4c(c2)C(=O)N([C@H]2CCC(=O)NC2=O)C4)C3)CC1
DC50 [11]: < 1 nM
Emax [12]: 97%

Cc1ncsc1-c1ccc([C@H](CC[C@H](C)CCN2CCC(c3ccc4c(c3)n(C3CCCC3)c3nc(=O)c5c(Br)cccc5n43)CC2)NC(=O)[C@@H]2C[C@@H](O)CN2C(=O)[C@@H](NC(=O)C2(F)CC2)C(C)(C)C)cc1
Emax [15]: 81%
